These molecules were tested against T1, Dimer of Gag-Pol polyprotein [501-599] (Human immunodeficiency virus 1, UniProt P03367) (assay: Protease Inhibition Assay). Conditions: pH 4.7; 30 °C.
T1 construct: 501-599
Method: HIV-1 protease activity was measured by a continuous fluorometric assay using the internally quenched fluorogenic substrate DABCYL-Ser-Gln-Asn-Tyr-Pro-Ile-Val-Gln-EDANS. The proteolytic activity can be monitored by the increase in fluorescence intensity, and the protease products were analyzed by HPLC.

Question: `O[C@H]([C@H](O)[C@@H](COCc1ccccc1)OCc1ccccc1)[C@@H](COCc1ccccc1)OCc1ccccc1` [(2R,3R,4S,5R)-1,2,5,6-tetrakis(benzyloxy)hexane-3,4-diol] was tested. Which IC50 did it give?
Answer: Its IC50 is greater than 50 µM.

Question: With `O[C@H]([C@H](O)[C@H](COCc1ccccc1)OCc1ccccc1)[C@@H](COCc1ccccc1)OCc1ccccc1` [(2R,3R,4S,5S)-1,2,5,6-tetrakis(benzyloxy)hexane-3,4-diol] as the molecule, how does the IC50 read?
Answer: The IC50 was greater than 50 µM.

Question: How did the IC50 turn out when `O[C@@H]([C@H](O)[C@@H](COc1ccccc1)OCc1ccccc1)[C@@H](COc1ccccc1)OCc1ccccc1` [(2R,3S,4S,5R)-2,5-bis(benzyloxy)-1,6-diphenoxyhexane-3,4-diol] was run?
Answer: The IC50 was greater than 50 µM.

Question: For `O[C@@H]([C@H](O)[C@@H](Cc1ccccc1)OCc1ccccc1)[C@@H](Cc1ccccc1)OCc1ccccc1` [(2R,3S,4S,5R)-2,5-bis(benzyloxy)-1,6-diphenylhexane-3,4-diol], which IC50 is on record?
Answer: The IC50 was greater than 50 µM.

Question: How did the IC50 turn out when `O[C@@H]([C@H](O)[C@@H](COCc1ccccc1)OCc1ccccc1)[C@H](COCc1ccccc1)OCc1ccccc1` [(2R,3S,4S,5S)-1,2,5,6-tetrakis(benzyloxy)hexane-3,4-diol] was run?
Answer: The IC50 was greater than 50 µM.

Question: With `O[C@@H](C[C@@H](COCc1ccccc1)OCc1ccccc1)[C@@H](COCc1ccccc1)OCc1ccccc1` [(2R,3S,5S)-1,2,5,6-tetrakis(benzyloxy)hexan-3-ol] as the molecule, how does the IC50 read?
Answer: Its IC50 is greater than 50 µM.

Question: `O[C@H]([C@@H](O)[C@H](COCc1ccccc1)OCc1ccccc1)[C@H](COCc1ccccc1)OCc1ccccc1` [(2S,3R,4R,5S)-1,2,5,6-tetrakis(benzyloxy)hexane-3,4-diol] was tested. Which IC50 did it give?
Answer: The IC50 was greater than 50 µM.

From BindingDB's records for doi:10.1016/s0960-894x(03)00677-2 (Pharmacor, 2003)
